Here are results for 18 compounds from patent US5763404A, “Methods for using LHRH antagonists with low histamine release” (priority 1995, dated 1998).

This data set relates to anaesthesized rats. Nature of the data set: wheal test, intradermal injection. It counts as in vivo, rat. The arrangement: Wheal (wheal response): unit not given here. As to conditions: for Wheal Area / Wheal: 10 ug peptide intradermally; for Wheal (wheal response): Table XIV and text, unit not given; for Wheal: Table I. The procedure, abridged: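 Anaesthetized rats given intradermal injection of 10 ug peptide in 100 ul saline; area of the wheal calculated from its diameter.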

Starred links: 1 amine or outer side, 2 acyl side, 3 side chain; linkers in the order of their positions; H or OH if unused. Non-standard residues stand in square brackets, D forms with d. Residues, ends and D or L forms follow the SMILES beside them. *: point of attachment. dAla(cis-4-NHCOPyz-cHex) = N[C@H](C[C@H]1CC[C@@H](NC(=O)c2cnccn2)CC1)C(=O)O; X2 = O=C(N[C@H]1CC[C@@H](C[C@H](N[*:1])C(=O)[*:2])CC1)c1cnccn1; X3 = O=C(N[C@H]1CC[C@H](C[C@@H](N[*:1])C(=O)[*:2])CC1)c1cnccn1; X7 = O=C(N[C@H]1CC[C@H](C[C@@H](N[*:1])C(=O)[*:2])CC1)c1cccnc1; dPhe(3,4-Cl2) = N[C@H](Cc1ccc(Cl)c(Cl)c1)C(=O)O; dPhe(4-Cl) = N[C@H](Cc1ccc(Cl)cc1)C(=O)O; X10 = O=C([C@@H](Cc1cnccn1)N[*:1])[*:2]; d2Nal = N[C@H](Cc1ccc2ccccc2c1)C(=O)O; dLys(iPr) = CC(C)NCCCC[C@@H](N)C(=O)O; Lys(iPr) = CC(C)NCCCC[C@H](N)C(=O)O; Orn(iPr) = CC(C)NCCC[C@H](N)C(=O)O; aIle = CC[C@@H](C)[C@H](N)C(=O)O; 3Pal = N[C@@H](Cc1cccnc1)C(=O)O; d3Pal = N[C@H](Cc1cccnc1)C(=O)O; Nicotinoyl = O=C(c1cccnc1)*; Picolinoyl = O=C(c1ccccn1)*; dAbu = CC[C@@H](N)C(=O)O; Abu = CC[C@H](N)C(=O)O; X12 = O=C(c1ccncn1)*

As for `CC(=O)N[C@H](Cc1ccc2ccccc2c1)C(=O)N[C@H](Cc1ccc(Cl)cc1)C(=O)N[C@H](Cc1cccnc1)C(=O)N[C@@H](CO)C(=O)N[C@@H](CCCCNC(=O)c1ccccn1)C(=O)N[C@H](CCCCNC(=O)c1ccccn1)C(=O)N[C@@H](CC(C)C)C(=O)N[C@@H](CCCNC(C)C)C(=O)N1CCC[C@H]1C(=O)N[C@H](C)C(N)=O` [compound 25933] (Ac-[d2Nal][dPhe(4-Cl)][d3Pal]SK(Picolinoyl)[dK](Picolinoyl)L[Orn(iPr)]P[dA]-NH2), the “Wheal Area” value came out at 113.0 ± 0 mm^2 /10 μg and the “Wheal (wheal response)” value came to 113.0 ± 0.

For `CC(=O)N[C@H](Cc1ccc2ccccc2c1)C(=O)N[C@H](Cc1ccc(Cl)cc1)C(=O)N[C@H](Cc1cccnc1)C(=O)N[C@@H](CO)C(=O)N[C@@H](C[C@H]1CC[C@@H](NC(=O)c2cnccn2)CC1)C(=O)N[C@H](Cc1cnccn1)C(=O)N[C@@H](CC(C)C)C(=O)N[C@@H](CCCNC(=N)N)C(=O)N1CCC[C@H]1C(=O)N[C@H](C)C(N)=O` [compound 26417] (Ac-[d2Nal][dPhe(4-Cl)][d3Pal]S[X2][X10]LRP[dA]-NH2), the “Wheal Area” value is 133.2 ± 11.8 mm^2 /10 μg.

`CC(=O)N[C@H](Cc1ccc2ccccc2c1)C(=O)N[C@H](Cc1ccc(Cl)cc1)C(=O)N[C@H](Cc1cccnc1)C(=O)N[C@@H](CO)C(=O)N[C@@H](CCCCNC(=O)c1cccnc1)C(=O)N[C@H](Cc1cccnc1)C(=O)N[C@@H](CC(C)C)C(=O)N[C@@H](CCCNC(=N)N)C(=O)N1CCC[C@H]1C(=O)N[C@H](C)C(N)=O` [compound 22495] (Ac-[d2Nal][dPhe(4-Cl)][d3Pal]SK(Nicotinoyl)[d3Pal]LRP[dA]-NH2) registered a Wheal of 112 mm^2 /10.

As for `CC[C@@H](NC(=O)[C@@H]1CCCN1C(=O)[C@H](CCCCNC(C)C)NC(=O)[C@H](CC(C)C)NC(=O)[C@@H](CCCCNC(=O)c1ccccn1)NC(=O)[C@H](CCCCNC(=O)c1ccccn1)NC(=O)[C@H](CO)NC(=O)[C@@H](Cc1cccnc1)NC(=O)[C@@H](Cc1ccc(Cl)cc1)NC(=O)[C@@H](Cc1ccc2ccccc2c1)NC(C)=O)C(N)=O` [compound 26019] (Ac-[d2Nal][dPhe(4-Cl)][d3Pal]SK(Picolinoyl)[dK](Picolinoyl)L[Lys(iPr)]P[dAbu]-NH2), the “Wheal Area” value came out at 109.9 ± 3.0 mm^2 /10 μg.

On to `CC(=O)N[C@H](Cc1ccc2ccccc2c1)C(=O)N[C@H](Cc1ccc(Cl)cc1)C(=O)N[C@H](Cc1cccnc1)C(=O)N[C@@H](CO)C(=O)N[C@@H](Cc1ccc(O)cc1)C(=O)N[C@H](CCCCNC(=O)c1cccnc1)C(=O)N[C@@H](CC(C)C)C(=O)N[C@@H](CCCCNC(C)C)C(=O)N1CCC[C@H]1C(=O)N[C@H](C)C(N)=O` [compound 24315] (Ac-[d2Nal][dPhe(4-Cl)][d3Pal]SY[dK](Nicotinoyl)L[Lys(iPr)]P[dA]-NH2), for which the Wheal worked out at 79.0 ± 9.2 mm^2 /10.

`CC[C@@H](C)[C@H](NC(=O)[C@@H](CCCCNC(=O)c1ccccn1)NC(=O)[C@H](CCCCNC(=O)c1ccccn1)NC(=O)[C@H](CO)NC(=O)[C@@H](Cc1cccnc1)NC(=O)[C@@H](Cc1ccc(Cl)cc1)NC(=O)[C@@H](Cc1ccc2ccccc2c1)NC(C)=O)C(=O)N[C@@H](CCCNC(C)C)C(=O)N1CCC[C@H]1C(=O)N[C@H](C)C(N)=O` [IBR 26178] (Ac-[d2Nal][dPhe(4-Cl)][d3Pal]SK(Picolinoyl)[dK](Picolinoyl)[aIle][Orn(iPr)]P[dA]-NH2): the “Wheal (wheal response)” value worked out at 78.6±4.5.

Turning to `CC(=O)N[C@H](Cc1ccc2ccccc2c1)C(=O)N[C@H](Cc1ccc(Cl)cc1)C(=O)N[C@H](Cc1cccnc1)C(=O)N[C@@H](CO)C(=O)N[C@@H](CCCCNC(=O)c1ccccn1)C(=O)N[C@H](C[C@H]1CC[C@@H](NC(=O)c2cnccn2)CC1)C(=O)N[C@H](C(=O)N[C@@H](CCCCNC(C)C)C(=O)N1CCC[C@H]1C(=O)N[C@H](C)C(N)=O)C(C)C` [compound 26325] (Ac-[d2Nal][dPhe(4-Cl)][d3Pal]SK(Picolinoyl)[dAla(cis-4-NHCOPyz-cHex)]V[Lys(iPr)]P[dA]-NH2), the “Wheal Area” value is on record as 127.8 ± 4.9 mm^2 /10 μg and the “Wheal (wheal response)” value is 127.8 ± 4.9.

As to `CC(=O)N[C@H](Cc1ccc2ccccc2c1)C(=O)N[C@H](Cc1ccc(Cl)cc1)C(=O)N[C@H](Cc1cccnc1)C(=O)N[C@@H](CO)C(=O)N[C@@H](CCCCNC(=O)c1ccncn1)C(=O)N[C@H](CCCCNC(=O)c1ccncn1)C(=O)N[C@@H](CC(C)C)C(=O)N[C@@H](CCCCNC(C)C)C(=O)N1CCC[C@H]1C(=O)N[C@H](C)C(N)=O` [compound 26322] (Ac-[d2Nal][dPhe(4-Cl)][d3Pal]SK(X12)[dK](X12)L[Lys(iPr)]P[dA]-NH2), the “Wheal Area” value is 130.2 ± 2.5 mm^2 /10 μg.

In the case of `CC(=O)N[C@H](Cc1ccc2ccccc2c1)C(=O)N[C@H](Cc1ccc(Cl)cc1)C(=O)N[C@H](Cc1cccnc1)C(=O)N[C@@H](CO)C(=O)N[C@@H](CCCCNC(=O)c1ccccn1)C(=O)N[C@H](C[C@H]1CC[C@H](NC(=O)c2cnccn2)CC1)C(=O)N[C@@H](CC(C)C)C(=O)N[C@@H](CCCCNC(C)C)C(=O)N1CCC[C@H]1C(=O)N[C@H](C)C(N)=O` [IV-5] (Ac-[d2Nal][dPhe(4-Cl)][d3Pal]SK(Picolinoyl)[X3]L[Lys(iPr)]P[dA]-NH2), the “Wheal Area” value came to 106.3 ± 4.3 mm^2 /10 μg.

`CC(=O)N[C@H](Cc1ccc2ccccc2c1)C(=O)N[C@H](Cc1ccc(Cl)cc1)C(=O)N[C@H](Cc1cccnc1)C(=O)N[C@@H](CO)C(=O)N[C@@H](Cc1ccc(O)cc1)C(=O)N[C@H](CCCNC(=N)N)C(=O)N[C@@H](CC(C)C)C(=O)N[C@@H](CCCCNC(=O)c1cccnc1)C(=O)N1CCC[C@H]1C(=O)N[C@H](C)C(N)=O` [compound 24749] (Ac-[d2Nal][dPhe(4-Cl)][d3Pal]SY[dR]LK(Nicotinoyl)P[dA]-NH2) had a Wheal of 136.3 mm^2 /10.

The compound `CC(=O)N[C@H](Cc1ccc2ccccc2c1)C(=O)N[C@H](Cc1ccc(Cl)cc1)C(=O)N[C@H](Cc1cccnc1)C(=O)N[C@@H](CO)C(=O)N[C@@H](Cc1ccc(O)cc1)C(=O)N[C@H](CCCCNC(C)C)C(=O)N[C@@H](CC(C)C)C(=O)N[C@@H](CCCCNC(=O)c1cccnc1)C(=O)N1CCC[C@H]1C(=O)N[C@H](C)C(N)=O` [compound 24824] (Ac-[d2Nal][dPhe(4-Cl)][d3Pal]SY[dLys(iPr)]LK(Nicotinoyl)P[dA]-NH2) returned a Wheal of 122.8 ± 5.8 mm^2 /10.

Consider `CC[C@H](NC(=O)[C@@H](CCCCNC(=O)c1ccccn1)NC(=O)[C@H](CCCCNC(=O)c1ccccn1)NC(=O)[C@H](CO)NC(=O)[C@@H](Cc1cccnc1)NC(=O)[C@@H](Cc1ccc(Cl)cc1)NC(=O)[C@@H](Cc1ccc2ccccc2c1)NC(C)=O)C(=O)N[C@@H](CCCCNC(C)C)C(=O)N1CCC[C@H]1C(=O)N[C@H](C)C(N)=O` [compound 25990] (Ac-[d2Nal][dPhe(4-Cl)][d3Pal]SK(Picolinoyl)[dK](Picolinoyl)[Abu][Lys(iPr)]P[dA]-NH2), for which the “Wheal Area” value was found to be 91.0 ± 5.4 mm^2 /10 μg.

Turning to `CC(=O)N[C@H](Cc1ccc2ccccc2c1)C(=O)N[C@H](Cc1ccc(Cl)cc1)C(=O)N[C@H](Cc1cccnc1)C(=O)N[C@@H](CO)C(=O)N[C@@H](CCCCNC(=O)c1cccnc1)C(=O)N[C@H](C[C@H]1CC[C@H](NC(=O)c2cccnc2)CC1)C(=O)N[C@@H](CC(C)C)C(=O)N[C@@H](CCCCNC(C)C)C(=O)N1CCC[C@H]1C(=O)N[C@H](C)C(N)=O` [IBR 25647] (Ac-[d2Nal][dPhe(4-Cl)][d3Pal]SK(Nicotinoyl)[X7]L[Lys(iPr)]P[dA]-NH2), the “Wheal Area” value is recorded as 119.5 ± 3.2 mm^2 /10 μg.

Regarding `CCNC(=O)[C@@H]1CCCN1C(=O)[C@H](CCCCNC(C)C)NC(=O)[C@H](CC(C)C)NC(=O)[C@@H](C[C@H]1CC[C@@H](NC(=O)c2cnccn2)CC1)NC(=O)[C@H](CCCCNC(=O)c1ccccn1)NC(=O)[C@H](CO)NC(=O)[C@@H](Cc1cccnc1)NC(=O)[C@@H](Cc1ccc(Cl)cc1)NC(=O)[C@@H](Cc1ccc2ccccc2c1)NC(C)=O` [compound 26383] (Ac-[d2Nal][dPhe(4-Cl)][d3Pal]SK(Picolinoyl)[dAla(cis-4-NHCOPyz-cHex)]L[Lys(iPr)]P-NHEt), the “Wheal Area” value was 119.6 ± 6.6 mm^2 /10 μg.

`CC(=O)N[C@H](Cc1ccc2ccccc2c1)C(=O)N[C@H](Cc1ccc(Cl)cc1)C(=O)N[C@H](Cc1cccnc1)C(=O)N[C@@H](CO)C(=O)N[C@@H](CCCCNC(=O)c1cccnc1)C(=O)N[C@H](CCCCNC(C)C)C(=O)N[C@@H](CC(C)C)C(=O)N[C@@H](CCCNC(=N)N)C(=O)N1CCC[C@H]1C(=O)N[C@H](C)C(N)=O` [compound 24754] (Ac-[d2Nal][dPhe(4-Cl)][d3Pal]SK(Nicotinoyl)[dLys(iPr)]LRP[dA]-NH2) displayed a Wheal of 196.9 ± 4.1 mm^2 /10.

With `CC[C@@H](C)[C@H](NC(=O)[C@@H](CCCCNC(=O)c1ccccn1)NC(=O)[C@H](CCCCNC(=O)c1ccccn1)NC(=O)[C@H](CO)NC(=O)[C@@H](Cc1cccnc1)NC(=O)[C@@H](Cc1ccc(Cl)cc1)NC(=O)[C@@H](Cc1ccc2ccccc2c1)NC(C)=O)C(=O)N[C@@H](CCCCNC(C)C)C(=O)N1CCC[C@H]1C(=O)N[C@H](C)C(N)=O` [compound 25936] (Ac-[d2Nal][dPhe(4-Cl)][d3Pal]SK(Picolinoyl)[dK](Picolinoyl)[aIle][Lys(iPr)]P[dA]-NH2), the “Wheal Area” value was found to be 97.9 ± 2.9 mm^2 /10 μg.

For the compound `CC(=O)N[C@H](Cc1ccc2ccccc2c1)C(=O)N[C@H](Cc1ccc(Cl)cc1)C(=O)N[C@H](Cc1cccnc1)C(=O)N[C@@H](CO)C(=O)N[C@@H](Cc1cccnc1)C(=O)N[C@H](CCCCNC(=O)c1cccnc1)C(=O)N[C@@H](CC(C)C)C(=O)N[C@@H](CCCCNC(C)C)C(=O)N1CCC[C@H]1C(=O)N[C@H](C)C(N)=O` [compound 25383] (Ac-[d2Nal][dPhe(4-Cl)][d3Pal]S[3Pal][dK](Nicotinoyl)L[Lys(iPr)]P[dA]-NH2), the Wheal came to 132.8 mm^2 /10.

Turning to `CC(=O)N[C@H](Cc1ccc2ccccc2c1)C(=O)N[C@H](Cc1ccc(Cl)c(Cl)c1)C(=O)N[C@H](Cc1cccnc1)C(=O)N[C@@H](CO)C(=O)N[C@@H](CCCCNC(=O)c1ccccn1)C(=O)N[C@H](CCCCNC(=O)c1ccccn1)C(=O)N[C@@H](CC(C)C)C(=O)N[C@@H](CCCCNC(C)C)C(=O)N1CCC[C@H]1C(=O)N[C@H](C)C(N)=O` [compound 25807] (Ac-[d2Nal][dPhe(3,4-Cl2)][d3Pal]SK(Picolinoyl)[dK](Picolinoyl)L[Lys(iPr)]P[dA]-NH2), the “Wheal Area” value came to 139.8 ± 7.1 mm^2 /10 μg.
